{"source": "the supplement of paper PMC10307832", "assay_in_all_cases": "relative viability (nuclei count vs DMSO), 5 days (fraction); higher = more cells survive", "key": {"NCI-H2342": {"test_system": "NCI-H2342", "summary_of_the_method": "(§1)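 Relative viability is defined as nuclei in treated wells over nuclei in vehicle wells. Duplicate plates were run and medians reported. Lung cancer cell lines in 1536-well plates were dosed by pin tool one day after seeding, with one drug or with a fixed anchor-drug dose plus five library-drug doses (not always all listed) in √10 steps, and nuclei were counted after 5 days.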"}, "NCI-H1793": {"test_system": "NCI-H1793", "summary_of_the_method": "as §1"}, "EMC-BAC-2": {"test_system": "EMC-BAC-2", "summary_of_the_method": "as §1"}, "NCI-H2228": {"test_system": "NCI-H2228", "summary_of_the_method": "as §1"}, "EKVX": {"test_system": "EKVX", "summary_of_the_method": "as §1"}, "H3255": {"test_system": "H3255", "summary_of_the_method": "as §1"}, "LXF-289": {"test_system": "LXF-289", "summary_of_the_method": "as §1"}, "NCI-H2347": {"test_system": "NCI-H2347", "summary_of_the_method": "as §1"}, "NCI-H1755": {"test_system": "NCI-H1755", "summary_of_the_method": "as §1"}, "NCI-H1395": {"test_system": "NCI-H1395", "summary_of_the_method": "as §1"}, "NCI-H2085": {"test_system": "NCI-H2085", "summary_of_the_method": "as §1"}, "LK-2": {"test_system": "LK-2", "summary_of_the_method": "as §1"}, "NCI-H1437": {"test_system": "NCI-H1437", "summary_of_the_method": "as §1"}, "LC-2-ad": {"test_system": "LC-2-ad", "summary_of_the_method": "as §1"}, "NCI-H1944": {"test_system": "NCI-H1944", "summary_of_the_method": "as §1"}, "CAL-12T": {"test_system": "CAL-12T", "summary_of_the_method": "as §1"}, "NCI-H2087": {"test_system": "NCI-H2087", "summary_of_the_method": "as §1"}, "NCI-H1915": {"test_system": "NCI-H1915", "summary_of_the_method": "as §1"}, "SK-LU-1": {"test_system": "SK-LU-1", "summary_of_the_method": "as §1"}, "PC-3 [JPC-3]": {"test_system": "PC-3 [JPC-3]", "summary_of_the_method": "as §1"}, "SK-MES-1": {"test_system": "SK-MES-1", "summary_of_the_method": "as §1"}, "NCI-H1651": {"test_system": "NCI-H1651", "summary_of_the_method": "as §1"}, "COR-L 105": {"test_system": "COR-L 105", "summary_of_the_method": "as §1"}, "NCI-H661": {"test_system": "NCI-H661", "summary_of_the_method": "as §1"}}, "data": [{"smiles": "CCCCCCCCCCCC1=C(O)C(=O)C=C(O)C1=O", "note": "[Embelin] + COc1cc2c(Oc3ccc(NC(=O)C4(C(=O)Nc5ccc(F)cc5)CC4)cc3F)ccnc2cc1OCCCN1CCOCC1 [Foretinib] (partner 0.25 µM)", "values": [{"measurement": "relative viability", "setting": "NCI-H2342; first compound 0.08 µM", "value": 1.12}, {"measurement": "relative viability", "setting": "NCI-H2342; first compound 0.8 µM", "value": 1.12}, {"measurement": "relative viability", "setting": "NCI-H2342; first compound 2.53 µM", "value": 1.18}, {"measurement": "relative viability", "setting": "NCI-H2342; first compound 8 µM", "value": 1.07}, {"measurement": "relative viability", "setting": "NCI-H1793; first compound 0.08 µM", "value": 0.712}, {"measurement": "relative viability", "setting": "NCI-H1793; first compound 0.8 µM", "value": 0.76}, {"measurement": "relative viability", "setting": "NCI-H1793; first compound 2.53 µM", "value": 0.916}, {"measurement": "relative viability", "setting": "NCI-H1793; first compound 8 µM", "value": 0.765}, {"measurement": "relative viability", "setting": "EMC-BAC-2; first compound 0.08 µM", "value": 1.05}, {"measurement": "relative viability", "setting": "EMC-BAC-2; first compound 0.8 µM", "value": 1.09}, {"measurement": "relative viability", "setting": "EMC-BAC-2; first compound 2.53 µM", "value": 0.973}, {"measurement": "relative viability", "setting": "EMC-BAC-2; first compound 8 µM", "value": 1.07}, {"measurement": "relative viability", "setting": "NCI-H2228; first compound 0.08 µM", "value": 1.08}, {"measurement": "relative viability", "setting": "NCI-H2228; first compound 0.8 µM", "value": 0.868}, {"measurement": "relative viability", "setting": "NCI-H2228; first compound 2.53 µM", "value": 1.32}, {"measurement": "relative viability", "setting": "NCI-H2228; first compound 8 µM", "value": 0.996}, {"measurement": "relative viability", "setting": "EKVX; first compound 0.08 µM", "value": 0.789}, {"measurement": "relative viability", "setting": "EKVX; first compound 0.8 µM", "value": 0.926}, {"measurement": "relative viability", "setting": "EKVX; first compound 2.53 µM", "value": 0.625}, {"measurement": "relative viability", "setting": "EKVX; first compound 8 µM", "value": 0.875}, {"measurement": "relative viability", "setting": "H3255; first compound 0.08 µM", "value": 0.831}, {"measurement": "relative viability", "setting": "H3255; first compound 0.8 µM", "value": 1.01}, {"measurement": "relative viability", "setting": "H3255; first compound 2.53 µM", "value": 0.82}, {"measurement": "relative viability", "setting": "H3255; first compound 8 µM", "value": 0.956}, {"measurement": "relative viability", "setting": "LXF-289; first compound 0.08 µM", "value": 0.999}, {"measurement": "relative viability", "setting": "LXF-289; first compound 0.8 µM", "value": 1}, {"measurement": "relative viability", "setting": "LXF-289; first compound 2.53 µM", "value": 1.06}, {"measurement": "relative viability", "setting": "LXF-289; first compound 8 µM", "value": 0.998}, {"measurement": "relative viability", "setting": "NCI-H2347; first compound 0.08 µM", "value": 0.981}, {"measurement": "relative viability", "setting": "NCI-H2347; first compound 0.8 µM", "value": 0.837}, {"measurement": "relative viability", "setting": "NCI-H2347; first compound 2.53 µM", "value": 1.21}, {"measurement": "relative viability", "setting": "NCI-H2347; first compound 8 µM", "value": 0.942}, {"measurement": "relative viability", "setting": "NCI-H1755; first compound 0.08 µM", "value": 0.912}, {"measurement": "relative viability", "setting": "NCI-H1755; first compound 0.8 µM", "value": 0.948}, {"measurement": "relative viability", "setting": "NCI-H1755; first compound 2.53 µM", "value": 0.927}, {"measurement": "relative viability", "setting": "NCI-H1755; first compound 8 µM", "value": 0.906}, {"measurement": "relative viability", "setting": "NCI-H1395; first compound 0.08 µM", "value": 0.904}, {"measurement": "relative viability", "setting": "NCI-H1395; first compound 0.8 µM", "value": 1.13}, {"measurement": "relative viability", "setting": "NCI-H1395; first compound 2.53 µM", "value": 1.08}, {"measurement": "relative viability", "setting": "NCI-H1395; first compound 8 µM", "value": 0.953}, {"measurement": "relative viability", "setting": "NCI-H2085; first compound 0.08 µM", "value": 1.04}, {"measurement": "relative viability", "setting": "NCI-H2085; first compound 0.8 µM", "value": 0.986}, {"measurement": "relative viability", "setting": "NCI-H2085; first compound 2.53 µM", "value": 1.05}, {"measurement": "relative viability", "setting": "NCI-H2085; first compound 8 µM", "value": 0.843}, {"measurement": "relative viability", "setting": "LK-2; first compound 0.08 µM", "value": 1.13}, {"measurement": "relative viability", "setting": "LK-2; first compound 0.8 µM", "value": 1.7}, {"measurement": "relative viability", "setting": "LK-2; first compound 2.53 µM", "value": 1.47}, {"measurement": "relative viability", "setting": "LK-2; first compound 8 µM", "value": 1.79}, {"measurement": "relative viability", "setting": "NCI-H1437; first compound 0.08 µM", "value": 1.25}, {"measurement": "relative viability", "setting": "NCI-H1437; first compound 0.8 µM", "value": 1.24}, {"measurement": "relative viability", "setting": "NCI-H1437; first compound 2.53 µM", "value": 1.27}, {"measurement": "relative viability", "setting": "NCI-H1437; first compound 8 µM", "value": 1.06}, {"measurement": "relative viability", "setting": "LC-2-ad; first compound 0.08 µM", "value": 0.916}, {"measurement": "relative viability", "setting": "LC-2-ad; first compound 0.8 µM", "value": 0.987}, {"measurement": "relative viability", "setting": "LC-2-ad; first compound 2.53 µM", "value": 1.13}, {"measurement": "relative viability", "setting": "LC-2-ad; first compound 8 µM", "value": 0.861}, {"measurement": "relative viability", "setting": "NCI-H1944; first compound 0.08 µM", "value": 0.842}, {"measurement": "relative viability", "setting": "NCI-H1944; first compound 0.8 µM", "value": 0.968}, {"measurement": "relative viability", "setting": "NCI-H1944; first compound 2.53 µM", "value": 0.989}, {"measurement": "relative viability", "setting": "NCI-H1944; first compound 8 µM", "value": 0.998}, {"measurement": "relative viability", "setting": "CAL-12T; first compound 0.08 µM", "value": 1.1}, {"measurement": "relative viability", "setting": "CAL-12T; first compound 0.8 µM", "value": 1.22}, {"measurement": "relative viability", "setting": "CAL-12T; first compound 2.53 µM", "value": 1.26}, {"measurement": "relative viability", "setting": "CAL-12T; first compound 8 µM", "value": 1.16}, {"measurement": "relative viability", "setting": "NCI-H2087; first compound 0.08 µM", "value": 1.07}, {"measurement": "relative viability", "setting": "NCI-H2087; first compound 0.8 µM", "value": 1.27}, {"measurement": "relative viability", "setting": "NCI-H2087; first compound 2.53 µM", "value": 1.03}, {"measurement": "relative viability", "setting": "NCI-H2087; first compound 8 µM", "value": 1.19}, {"measurement": "relative viability", "setting": "NCI-H1915; first compound 0.08 µM", "value": 1.14}, {"measurement": "relative viability", "setting": "NCI-H1915; first compound 0.8 µM", "value": 1.1}, {"measurement": "relative viability", "setting": "NCI-H1915; first compound 2.53 µM", "value": 1.13}, {"measurement": "relative viability", "setting": "NCI-H1915; first compound 8 µM", "value": 1.13}, {"measurement": "relative viability", "setting": "SK-LU-1; first compound 0.08 µM", "value": 0.953}, {"measurement": "relative viability", "setting": "SK-LU-1; first compound 0.8 µM", "value": 0.861}, {"measurement": "relative viability", "setting": "SK-LU-1; first compound 2.53 µM", "value": 1.04}, {"measurement": "relative viability", "setting": "SK-LU-1; first compound 8 µM", "value": 0.888}, {"measurement": "relative viability", "setting": "PC-3 [JPC-3]; first compound 0.08 µM", "value": 1.01}, {"measurement": "relative viability", "setting": "PC-3 [JPC-3]; first compound 0.8 µM", "value": 1.02}, {"measurement": "relative viability", "setting": "PC-3 [JPC-3]; first compound 2.53 µM", "value": 0.985}, {"measurement": "relative viability", "setting": "PC-3 [JPC-3]; first compound 8 µM", "value": 1.08}, {"measurement": "relative viability", "setting": "SK-MES-1; first compound 0.08 µM", "value": 0.943}, {"measurement": "relative viability", "setting": "SK-MES-1; first compound 0.8 µM", "value": 1.22}, {"measurement": "relative viability", "setting": "SK-MES-1; first compound 2.53 µM", "value": 0.972}, {"measurement": "relative viability", "setting": "SK-MES-1; first compound 8 µM", "value": 0.94}, {"measurement": "relative viability", "setting": "NCI-H1651; first compound 0.08 µM", "value": 0.848}, {"measurement": "relative viability", "setting": "NCI-H1651; first compound 0.8 µM", "value": 0.865}, {"measurement": "relative viability", "setting": "NCI-H1651; first compound 2.53 µM", "value": 0.924}, {"measurement": "relative viability", "setting": "NCI-H1651; first compound 8 µM", "value": 0.769}, {"measurement": "relative viability", "setting": "COR-L 105; first compound 0.08 µM", "value": 1.04}, {"measurement": "relative viability", "setting": "COR-L 105; first compound 0.8 µM", "value": 1.05}, {"measurement": "relative viability", "setting": "COR-L 105; first compound 2.53 µM", "value": 1.18}, {"measurement": "relative viability", "setting": "COR-L 105; first compound 8 µM", "value": 0.807}, {"measurement": "relative viability", "setting": "NCI-H661; first compound 0.08 µM", "value": 1.03}, {"measurement": "relative viability", "setting": "NCI-H661; first compound 0.8 µM", "value": 1.08}, {"measurement": "relative viability", "setting": "NCI-H661; first compound 2.53 µM", "value": 0.994}, {"measurement": "relative viability", "setting": "NCI-H661; first compound 8 µM", "value": 0.976}]}]}
